In data set [1] the target is T1, DPIV (dipeptidyl peptidase IV) (Sus scrofa, UniProt P22411).
T1 construct: The hydrolysis of peptide analogues by purified kidney DPIV was studied as described previously [12]; from tissue; host or cells: kidney
As to the kind of experiment: Determination of DPIV resistance by MALDI-TOF mass spectrometry. Format: in vitro ADME. As to conditions: purified kidney DPIV, 0.04 M Tris buffer pH 7.6, up to 24 h, MALDI-TOF MS; read-out: half life after incubation with DP IV. The procedure:
(§1) The hydrolysis of peptide analogues by purified kidney DPIV was studied as described previously. […] Samples were removed from the incubation mixture and prepared for MALDI-TOF mass spectrometry, as described in Pauly, […]., Pederson, R. A., and Demuth, H. U.

The subject of a further data set is INS-1 (832/13) cells. As to the kind of experiment: Cell survival during glucose deprivation (CYQUANT). The conditions noted are these: inhibitor added 15 min prior to final 24 h culture, 100 nM GIP. Format: cell-based. As for the experimental part:
Cell passages 45-60 were used.
Cells were seeded into 96-well plates (5×10^4 cells/well) prior to experimentation. […] Cells were quantified using the CYQUANT™ assay system (Molecular Probes, Eugene, Oreg., USA) according to the manufacturers' protocol.
Cell survival was assessed in the presence of prolonged glucose deprivation.

For data set [2], the target named is T2, rat pancreatic islet (wild type) GIP-receptor stably expressed on CHO-K1 cells (rat) (UniProt P43219).
T2 sequence (looked up): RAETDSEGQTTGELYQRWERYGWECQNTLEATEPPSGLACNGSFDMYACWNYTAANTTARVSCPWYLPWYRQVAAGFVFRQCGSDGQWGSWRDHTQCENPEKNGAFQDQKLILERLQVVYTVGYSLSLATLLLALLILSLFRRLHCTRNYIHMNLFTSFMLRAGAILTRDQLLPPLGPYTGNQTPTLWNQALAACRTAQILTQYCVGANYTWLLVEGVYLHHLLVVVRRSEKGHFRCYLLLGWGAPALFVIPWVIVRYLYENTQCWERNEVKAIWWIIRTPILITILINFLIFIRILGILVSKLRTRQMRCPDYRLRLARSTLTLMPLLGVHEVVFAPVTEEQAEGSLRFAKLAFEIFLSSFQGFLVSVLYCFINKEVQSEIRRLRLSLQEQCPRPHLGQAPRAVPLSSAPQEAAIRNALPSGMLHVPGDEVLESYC
As to the kind of experiment: displacement of 125I-GIP from intact CHO-K1 cells expressing rat GIP receptor, 10 µM peptide. Background: Loss of bound radioactivity is the signal in a displacement assay; it reports binding, not function.

For data set [3], the target named is T3, rat pancreatic islet (wild type) GIP-receptor (Rattus norvegicus, UniProt P43219).
T3 construct: expressed in transfected cells; host or cells: CHO-K1 (Chinese hamster ovary)
T3 sequence (P43219 19-455): T2 sequence (looked up)
The experiment in a line: biochemical. In kind it is binding. As for the experimental part:
(§2) Cells were cultured in DMEM/F12, supplemented with 10% newborn calf serum, 50 units/ml penicillin G, and 50 μg/ml streptomycin (Culture media and antibiotics from Gibco BRL, Life Technologies). Cells were grown in 75 cm^2 flasks until 80-90% confluent, when they were split and seeded onto 24 well plates at a density of 50,000 cells/well. Experiments were carried out 48 h later.
(§3) Binding studies using ^125I-labeled spGIP1-42, purified by high performance liquid chromatography (HPLC), were performed essentially as described previously-[21]. wtGIP-R1 Cells (1-5×10^5/well) were washed twice at 4° C. in binding buffer (BB), consisting of DMEM/F12 (GIBCO), 15 mM HEPES, 0.1% bovine serum albumin (BSA), 1% Trasylol (aprotinin; Bayer), pH 7.4. They were incubated for 12-16 h at 4° C. with ^125I-spGIP (50,000 cpm) in the presence or absence of unlabeled GIP1-42 or analogue. Following incubation, cells were washed twice with ice cold buffer, solubilized with 0.1 M NaOH (1 ml), and transferred to culture tubes for counting of cell-associated radioactivity. Nonspecific binding was defined as that measured in the presence of 1 μM GIP1-42 or GIP1-30, and specific binding expressed as % of binding in the absence of competitor (% B/Bo).

Data set [4] concerns the target T3, rat pancreatic islet (wild type) GIP-receptor. As to the kind of experiment: cAMP production in CHO-K1 cells expressing the GIP-receptor (wtGIP-R1 cells). The conditions noted are these: basal cyclic AMP = 2.737 ± 0.079 fmol/1000 cells; for cAMP Production (Fold Basal) 10 μM: 10 μM peptide. In kind it is cell-based. The procedure: as §2
Cells were extracted with 70% ethanol and cAMP levels measured by radioimmunoassay (Biomedical Technologies, Stoughton, Mass.). Data are expressed as fmol/1000 cells or % maximal GIP1-42-stimulated cAMP production (inhibition experiments).

The next data set concerns the target T4, purified kidney DPIV (Sus scrofa, UniProt P22411).
T4 construct: The hydrolysis of peptide analogues by purified kidney DPIV was studied as described previously [12]; from tissue; host or cells: kidney
As to the kind of experiment: Determination of DPIV resistance by MALDI-TOF mass spectrometry. In kind it is in vitro ADME. The procedure:
as §1

The target in data set [5] is T5, rat pancreatic islet (wild type) GIP-receptor stably expressed on CHO-K1 cells (rat, UniProt P43219 19-455).
T5 sequence (looked up): T2 sequence (looked up)
The experiment in a line: cell-based or functional assay.

Data set [6] has as its target T5, rat pancreatic islet (wild type) …. The experiment in a line: displacement of 125I-GIP from intact CHO-K1 cells expressing rat GIP receptor, 10 µM peptide. The procedure: Cells were cultured in DMEM/F12, supplemented with 10% newborn calf serum, 50 units/ml penicillin G, and 50 μg/ml streptomycin (Culture media and antibiotics from Gibco BRL, Life Technologies). Cells were grown in 75 cm² flasks until 80-90% confluent, when they were split and seeded onto 24 well plates at a density of 50,000 cells/well. Experiments were carried out 48 h later.
as §3, with “¹²⁵I-labeled spGIP₁₋₄₂,” for “^125I-labeled spGIP1-42,”, “(1-5×10⁵/well)” for “(1-5×10^5/well)”, “¹²⁵I-spGIP” for “^125I-spGIP”, “GIP₁₋₄₂” for “GIP1-42”, “GIP₁₋₃₀,” for “GIP1-30,”

Setting [7] is: purified kidney DPIV, 0.04 M Tris buffer pH 7.6, up to 24 h, MALDI-TOF MS.

By half-life is commonly meant the time needed for the level to fall by half in the phase considered.

“Also recorded” adds a separate entry of the source. Square brackets hold non-standard residues; d marks the D form. Ends that are not written are not given here. Peptide text beside a SMILES is read from it.

T4 sequence (P22411 whole entry): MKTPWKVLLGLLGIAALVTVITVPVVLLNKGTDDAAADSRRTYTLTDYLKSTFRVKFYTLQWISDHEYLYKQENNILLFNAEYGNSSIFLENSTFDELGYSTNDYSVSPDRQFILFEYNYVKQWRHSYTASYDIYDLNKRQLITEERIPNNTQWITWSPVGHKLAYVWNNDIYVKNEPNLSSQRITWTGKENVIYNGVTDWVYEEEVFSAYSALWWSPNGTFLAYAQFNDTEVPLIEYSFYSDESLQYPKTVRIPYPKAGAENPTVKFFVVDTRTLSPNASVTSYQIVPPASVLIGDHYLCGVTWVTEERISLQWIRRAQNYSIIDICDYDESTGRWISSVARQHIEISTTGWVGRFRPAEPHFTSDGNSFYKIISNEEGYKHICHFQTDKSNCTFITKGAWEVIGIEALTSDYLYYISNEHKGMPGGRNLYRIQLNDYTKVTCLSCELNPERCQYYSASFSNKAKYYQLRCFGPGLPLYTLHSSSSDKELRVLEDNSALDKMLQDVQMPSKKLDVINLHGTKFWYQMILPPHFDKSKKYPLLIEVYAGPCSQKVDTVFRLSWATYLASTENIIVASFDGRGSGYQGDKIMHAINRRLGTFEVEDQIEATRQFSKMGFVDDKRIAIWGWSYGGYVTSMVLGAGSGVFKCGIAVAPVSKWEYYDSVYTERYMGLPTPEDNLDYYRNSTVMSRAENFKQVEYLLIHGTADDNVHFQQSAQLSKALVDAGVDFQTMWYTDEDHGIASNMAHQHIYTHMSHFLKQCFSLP
T1 sequence (P22411 whole entry): as above

As to `CC[C@H](C)[C@H](NC(=O)[C@H](CO)NC(=O)[C@H](Cc1ccc(O)cc1)NC(=O)[C@H](CC(=O)O)NC(=O)[C@H](CO)NC(=O)[C@@H](NC(=O)[C@H](Cc1ccccc1)NC(=O)[C@@H](NC(=O)CNC(=O)[C@@H](CCC(=O)O)NC(=O)[C@H](C)NC(=O)[C@@H](N)Cc1ccc(O)cc1)[C@@H](C)O)[C@@H](C)CC)C(=O)N[C@@H](C)C(=O)N[C@@H](CCSC)C(=O)N[C@@H](CC(=O)O)C(=O)N[C@@H](CCCCN)C(=O)N[C@H](C(=O)N[C@@H](CCCNC(=N)N)C(=O)N[C@@H](CCC(N)=O)C(=O)N[C@@H](CCC(N)=O)C(=O)N[C@@H](CC(=O)O)C(=O)N[C@@H](Cc1ccccc1)C(=O)N[C@H](C(=O)N[C@@H](CC(N)=O)C(=O)N[C@@H](Cc1c[nH]c2ccccc12)C(=O)N[C@@H](CC(C)C)C(=O)N[C@@H](CC(C)C)C(=O)N[C@@H](C)C(=O)N[C@@H](CCC(N)=O)C(=O)N[C@@H](CCCCN)C(N)=O)C(C)C)[C@@H](C)CC` [D-Glu^3-GIP1-30] (H-YA[dE]GTFISDYSIAMDKIRQQDFVNWLLAQK-NH2; N-terminus and C-terminus assumed), the half-life in data set [1] turned out to be 0.672 ± 0.08 h.
As for `O=S(=O)(NCCNC/C=C/c1ccc(Br)cc1)c1cccc2cnccc12` [H89], the “effect of protein kinase inhibitor on GIP-mediated cell survival” value with INS-1 (832/13) cells is listed as “lack of effect; also recorded: unable to reverse”.
On the same count and under the same terms, the same measure for `COc1cccc(-c2cc(=O)c3ccccc3o2)c1N` [PD98059]: “Neither of the Mek1/2 inhibitors PD98059 (50 and 100 μM) nor U0126 (10 μM) blocked”; for `Oc1ccc(-c2nc(-c3ccncc3)c(-c3ccc(F)cc3)[nH]2)cc1` [SB202190]: “influenced GIP-mediated cell survival”.
Still for that read-out and setting: the same measure for `N#CC(=C(/N)Sc1ccccc1N)/C(C#N)=C(\N)Sc1ccccc1N` [U0126]: “Neither of the Mek1/2 inhibitors PD98059 (50 and 100 μM) nor U0126 (10 μM) blocked”.
As to “GIP 1-7NH2 (from UniProt P09681 52-58) (peptide)”, the % Displacement at 10 µM in data set [2] is -6.1%.
With “GIP 1-15OH (from UniProt P09681 52-66) (peptide)”, the % Displacement at 10 µM in data set [2] was -3.1%.
As to “ISDYSIAMDKIRQQDFVNWLLAQK-NH2 [GIP7-30a, reference compound]”, in data set [3] (10 μM peptide, 125I-GIP), the “Receptor Binding % Displacement at 10 μM” value stood at 99.3 ± 1.0%. The half-life in data set [1] amounted to 2.17 ± 0.177 h. Moreover, the “cAMP Production (Fold Basal) 10 μM” value in data set [4] was 0.89 ± 0.06 Fold Basal. In addition, in data set [4] (20 μM peptide), the “cAMP Production (Fold Basal) 20 μM” value worked out at 0.85 ± 0.03 Fold Basal.
Turning to “Tyr-Ala-Ψ(CH2NH2)-Glu-Gly-Thr-Phe-Ile-Ser-Asp-Tyr-Ser-Ile-Ala-Met (EGTFISDYSIAM; not fully specified; N-terminal Tyr-Ala reduced bond, C-amide; printed: Glu-Gly-Thr-Phe-Ile-Ser-Asp-Tyr-Ser-Ile-Ala-Met) [YAψ(CH2NH)-GIP3-14a, GIP1-14 analogue with a reduced peptide bond]”, the “half life after incubation with DP IV” value in the data set with purified kidney DPIV (pH 7.6) is recorded as “stable”.
The same measure, in the same setting: the entry for “Tyr-Ala-ψ(CH2NH)-Glu-Gly-Thr-Phe-Ile-Ser-Asp-Tyr-Ser-Ile-Ala-Met-Asp-Lys-Ile-His-Gln-Gln-Asp-Phe-Val-Asn-Trp-Leu-Leu-Ala-Gln-Lys [YAψ(CH2NH)-GIP3-30a]” is “stable”.
Turning to YAEGTF-NH2 [GIP1-6a], the “Receptor Binding % Displacement at 10 μM” value in data set [3] (10000.0) is −3.6 ± 7.8%. Further, the half-life in data set [1] is above 0.125 h.
For “YAEGTFISDYSIAMDKIRQQDFVNWLLAQK-NH2 [GIP1-30a, reference compound]”, the “Receptor Binding % Displacement at 10 μM” value in data set [3] (10 μM peptide, 125I-GIP) is 99.8 ± 1.2%. Further, the half-life in data set [1] is below 0.25 h. The “cAMP Production (Fold Basal) 10 μM” value in data set [4] worked out at 108 ± 12 Fold Basal.
YAPGTF-NH2 [Pro3-GIP1-6a]: at purified kidney DPIV (setting [7]), the “half life after incubation with DP IV” value is recorded as “stable”.
As for YAPGTFISDYSIAM [Pro^3-GIP1-14], the “half life after incubation with DP IV” value at purified kidney DPIV (setting [7]) is “stable”.
The same measure, in the same setting: the same measure for YGEGTF-NH2 [Gly^2-GIP1-6a]: “Not detectable^b”.
Turning to “YGEGTFISDYSIAMDKIRQQDFVNWLLAQK-NH2 [Gly^2-GIP1-30a]”, the half-life in data set [1] turned out to be 2.51 ± 0.455 h.
Still for that read-out and setting: the figure for YPEGTF-NH2 [Pro^2-GIP1-6a] is above 0.125 h.
YSEGTF-NH2 [Ser^2-GIP1-6a]: the half-life at purified kidney DPIV (purified kidney DPIV, 0.04 M Tris buffer pH 7.6, up to 24 h, MALDI-TOF MS, read-out: half life after incubation with DP IV) stood at 1.32 ± 0.203 h.
“YSEGTFISDYSIAMDKIRQQDFVNWLLAQK-NH2 [Ser^2-GIP1-30a]”: the half-life in data set [1] came out at 2.28 ± 0.205 h.
As to YVEGTF-NH2 [Val^2-GIP1-6a], on purified kidney DPIV (setting [7]), the “half life after incubation with DP IV” value is recorded as “Not detectable”.
As to “YVEGTFISDYSIAMDKIRQQDFVNWLLAQK-NH2 [Val^2-GIP1-30a]”, in data set [1], the half-life was 4.97 ± 1.54 h.
With YAEGTFISDYSIA-NH2 (peptide, UniProt P09681 52-64, looked up, range 1-13) [GIP 1-13NH2], in data set [5], the “cAMP Production (Fold Basal) at 10 µM” value was 6.51 fold basal and the “cAMP Production (Fold Basal) at 20 µM” value was 15.7 fold basal. Further, the “% Displacement at 10 µM” value in data set [6] amounted to 5%.
The matching figures for YAEGTFISDYSIAM-NH2 (peptide, UniProt P09681 52-65, looked up, range 1-14) [GIP 1-14NH2]: 75.4 fold basal, 88.3 fold basal and 27.9%.

B1: GIP 1-14OH (peptide, UniProt P09681 52-65, looked up)
peptide: YAEGTFISDYSIAM-OH
notes: range 1-14; free acid form; also called native GIP (1-14)
Take B1: in data set [5], the “cAMP Production (Fold Basal) at 10 µM” value is 88.9 fold basal and the “cAMP Production (Fold Basal) at 20 µM” value is 85.2 fold basal. In addition, the “% Displacement at 10 µM” value in data set [6] worked out at 51.3%.
Turning to QQDFVNWLLAQK-NH2 (peptide, UniProt P09681 70-81, looked up, range 19-30; also called GIP19-30a) [GIP 19-30NH2], in data set [5], the “cAMP Production (Fold Basal) at 10 µM” value came to 20.1 fold basal and the “cAMP Production (Fold Basal) at 20 µM” value is 45 fold basal. The “% Displacement at 10 µM” value in data set [6] is 52.3%.
